Read-outs that look alike come from different tables or passages of the source. Marks after values point to notes of the source that are not given here.

These results are taken from patent publication US8962657B2, “Aryl derivatives and uses thereof” (Jacobus Pharmaceutical Company, Inc., priority 2012, dated 2015).

Assay [1] relates to Plasmodium berghei (KBG-173 strain). Put plainly: Plasmodium berghei assay in vivo (modified Thompson Test), survival of infected mice. Further details: species or system Charles River CD-1 mice. Particulars: for Average Days Survival: 31 day experiment. As for the experimental part:
In vivo antimalarial activity was tested in male or female Charles River CD-1 mice that were 4-5 weeks old and weighed 20-25 g They were housed in groups of 3 or 4 in standard plastic cages with wire tops, Bed-o-cob® bedding, 12 hr/day of light, and maintained at 75° F. They were fed a standard Ralston Purina mouse chow and the cages and bottles were changed twice a week. Test compounds were ground in a mortar and pestle and diluted with enough vehicle to give a volume of 10 mL/kg of mouse weight. The oral doses were prepared in 0.5% hydroxyethylcellulose (Union Carbide Corp. WP 4400)/0.1% Tween-80 (Fisher Scientific T164-500). The amount of drug was calculated on the free base weight. The mice were infected intraperitoneally on day 0 with 5×10^4 erythrocytes parasitized with Plasmodium berghei (KBG-173 strain) from a donor mouse having a parasitemia between 5-10%. On days 3, 4 and 5 the test compounds were administered bid, spaced 6 hr apart, by oral gavage to the mice. Activity was measured by survival, with full activity defined as all animals living at day 31. Partial activity is defined as days of increased survival versus the infected non-treated controls. This in vivo model is a modification of the Thompson Test. For further description see Ager, A. L, Jr. Rodent Malaria Models. In Handbook of Experimental Pharmacology: Antimalarial Drugs. 1. 68/1; Peters, W., Richards, W. H. G., Eds.: Springer-Verlag: Berlin, 1984, pp. 231-33.

The subject of assay [2] is P. falciparum strain D6 (sensitive to chloroquine and pyrimethamine). Kind of assay: [3H]-hypoxanthine growth inhibition assay, P. falciparum D6. The note with it: Plasmodium falciparum. In kind it is cell-based. On the procedure:
(§1) The potential for antimalarial activity against Plasmodium falciparum was determined by measuring the incorporation of tritiated hypoxanthine into parasitized red blood cells.
(§2) Stock solutions of the test compounds and the reference drug chloroquine (CQ) (Sigma Chemicals C-6628, Lot #059H0919) were prepared in silanized glass vials with AquaSil™ (Pierce, USA) to minimize absorption of the compounds to glassware. All test compounds were dissolved in DMSO (Sigma Cat No. # D8418) to 1 mM concentration, whereas CQ was dissolved in 50% methanol at a concentration of 1.6 mg/ml (base). Stock solutions were stored at −20° C.
(§3) The P. falciparum laboratory adapted strains utilized in this project (Table 1) were in vitro cultured and routinely maintained in RPMI-1640-LPLF complete medium, which contained low concentrations of para-amino benzoic acid (0.0005 mg/L) and folic acid (0.01 mg/L).
(§4) The low concentration of folic acid in RPMI-1640-LPLF prevents inhibition of the compound if its activity targets the parasite's folate metabolic pathway. Parasites were cultured in human red blood cells (RBCs) in vitro at 37° C. in special gas mixture (5% O2, 5% CO2 and 90% N2) as described Trager and Jensen (1979 Science 193:673-675).
(§5) Base cultivation medium consisted of 10.4 g/L RPMI-1640-LPLF powder (Gibco BRL), 5.97 g/L HEPES buffer (MP Biomedicals, USA), 2.0 g/L D-glucose (BDH chemicals, Australia), 0.05 g/L hypoxanthine (Sigma, USA) and 40 mg/L gentamycin (Pfizer, Australia). The pH of the medium was adjusted to 6.9 and the solution was filtered using 0.2 μm pore size (AcroCap, Gelman Science, USA). […] For [^3H]-hypoxanthine inhibition growth assay, RPMI-1640-LPLF complete medium which lacked [^3H]-hypoxanthine ([^3H]-RPMI-1640-LPLF) was used to prevent uptake of hypoxanthine by parasites, as radioactive hypoxanthine uptake is measured as a surrogate marker of growth. […]
(§6) Red blood cells (RBC) were required for P. falciparum parasites to proliferate in vitro. […] Following the final wash, the haematocrit was measured as the percent of RBC to total culture volume. […]

For assay [3], the system named is P. falciparum strain W2 (resistant to chloroquine and pyrimethamine). Kind of assay: [3H]-hypoxanthine growth inhibition assay, P. falciparum W2. The format is cell-based. Particulars: Plasmodium falciparum. On the procedure: as §1, §2, §3, §4, §5, §6
Setting [4] is: 4 mg/kg/day, oral bid on days 3, 4 and 5.
Where [5] appears, read: 16 mg/kg/day, oral bid on days 3, 4 and 5.
[6] abbreviates: Plasmodium berghei, 744 h, 16 mg/kg/day, oral bid on days 3, 4 and 5, read-out: Number of mice alive at day 31 (converted).
Setting [7] is: P. falciparum D6, [3H]-hypoxanthine incorporation, read-out: D6 IC50.
The mark [8] stands for this setting: P. falciparum W2, [3H]-hypoxanthine incorporation, read-out: W2 IC50.
Where [9] appears, read: 64 mg/kg/day, oral bid on days 3, 4 and 5.
The mark [10] stands for this setting: Plasmodium berghei, po, 744 h, read-out: Number of mice alive at day 31.

For the molecule `CC(C)(C)NCc1cc(C(C)(C)C)cc(-c2ccc(Cl)c(C(F)(F)F)c2)c1O.Cl` [Example 23, 5-(tert-Butyl)-3-((tert-butylamino)methyl)-4′-chloro-3′-(trifluoromethyl)-[1,1′-biphenyl]-2-ol hydrochloride], the “Average Days Survival” value was above 15.3 days in assay [1] (1 mg/kg/day, oral bid on days 3, 4 and 5); above 7 days in assay [1] (2 mg/kg/day, oral bid on days 3, 4 and 5); >31* Days in assay [1] (setting [4]); >31* Days in assay [1] (8 mg/kg/day, oral bid on days 3, 4 and 5); >31* Days in assay [1] (setting [5]); >31* Days in assay [1] (32 mg/kg/day, oral bid on days 3, 4 and 5). Moreover, the responders at 1 mg/kg in assay [1] (Plasmodium berghei, 744 h, 1 mg/kg/day, oral bid on days 3, 4 and 5, read-out: Number of mice alive at day 31 (converted)) is 42.9%. In addition, the responders at 2 mg/kg in assay [1] (Plasmodium berghei, 744 h, 2 mg/kg/day, oral bid on days 3, 4 and 5, read-out: Number of mice alive at day 31 (converted)) was 85.7%. In assay [1] (Plasmodium berghei, 744 h, 4 mg/kg/day, oral bid on days 3, 4 and 5, read-out: Number of mice alive at day 31 (converted)), the responders at 4 mg/kg is 100%. Also, in assay [1] (Plasmodium berghei, 744 h, 8 mg/kg/day, oral bid on days 3, 4 and 5, read-out: Number of mice alive at day 31 (converted)), the responders at 8 mg/kg is 100%. Further, in assay [1] (setting [6]), the responders at 16 mg/kg is 100%. Further, in assay [1] (Plasmodium berghei, 744 h, 32 mg/kg/day, oral bid on days 3, 4 and 5, read-out: Number of mice alive at day 31 (converted)), the responders at 32 mg/kg was 100%. Further, the IC50 is 21 nM in assay [2] (setting [7]) and 9 nM in assay [3] (setting [8]).
In the case of `CCN(CC)CCCC(C)Nc1ccnc2cc(Cl)ccc12` (stereo not drawn) [Chloroquine, chloroquine, reference compound], the “Average Days Survival” value is 10.3 days in assay [1] (setting [4]); above 18.8 days in assay [1] (setting [5]); above 18.6 days in assay [1] (setting [9]); above 21.3 days in assay [1] (128 mg/kg/day, oral bid on days 3, 4 and 5). Moreover, the responders at 4 mg/kg in assay [1] (setting [10]) was found to be 0%. In assay [1] (setting [10]), the responders at 16 mg/kg is 14.3%. The responders at 64 mg/kg in assay [1] (setting [10]) was 28.6%. The responders at 128 mg/kg in assay [1] (setting [10]) was 57.1%. Further, the IC50 in assay [2] (D6, read-out: D6 IC50) was 12 nM; in assay [3] (W2, read-out: W2 IC50) it was 133 nM.
Consider `CC(C)(C)NCc1cc(-c2ccc(Cl)cc2)nc(-c2ccc(Cl)cc2)c1O.Cl` [Example 56, 4-((tert-Butylamino)methyl)-2,6-bis(4-chlorophenyl)pyridin-3-ol hydrochloride], for which the “Average Days Survival” value was above 19.3 days in assay [1] (setting [5]) and above 20 days in assay [1] (setting [9]). Besides, in assay [1] (setting [6]), the responders at 16 mg/kg is 71.4%. The responders at 64 mg/kg in assay [1] (Plasmodium berghei, 744 h, 64 mg/kg/day, oral bid on days 3, 4 and 5, read-out: Number of mice alive at day 31 (converted)) is 85.7%. In addition, the IC50 stood at 32 nM in assay [2] (setting [7]) and 12 nM in assay [3] (setting [8]).

Usually IC50 stands for the concentration needed to halve the response being measured.
